Eleven compounds from ChEMBL document CHEMBL1201862, “PubChem BioAssay data set” (2004) can be followed below.

As usually defined, the AC50 is the concentration giving half of the maximal activity seen. Usually IC50 stands for the concentration that gives 50% inhibition. What is called EC50 is the concentration at which the effect is half-maximal.

Calls of active or inactive are those of the source. Where only a bound is given, the exact number is not on record here.

For series [1], the target named is T1, Histone-lysine N-methyltransferase NSD2 (Homo sapiens, UniProt O96028).
T1 sequence (O96028 whole entry): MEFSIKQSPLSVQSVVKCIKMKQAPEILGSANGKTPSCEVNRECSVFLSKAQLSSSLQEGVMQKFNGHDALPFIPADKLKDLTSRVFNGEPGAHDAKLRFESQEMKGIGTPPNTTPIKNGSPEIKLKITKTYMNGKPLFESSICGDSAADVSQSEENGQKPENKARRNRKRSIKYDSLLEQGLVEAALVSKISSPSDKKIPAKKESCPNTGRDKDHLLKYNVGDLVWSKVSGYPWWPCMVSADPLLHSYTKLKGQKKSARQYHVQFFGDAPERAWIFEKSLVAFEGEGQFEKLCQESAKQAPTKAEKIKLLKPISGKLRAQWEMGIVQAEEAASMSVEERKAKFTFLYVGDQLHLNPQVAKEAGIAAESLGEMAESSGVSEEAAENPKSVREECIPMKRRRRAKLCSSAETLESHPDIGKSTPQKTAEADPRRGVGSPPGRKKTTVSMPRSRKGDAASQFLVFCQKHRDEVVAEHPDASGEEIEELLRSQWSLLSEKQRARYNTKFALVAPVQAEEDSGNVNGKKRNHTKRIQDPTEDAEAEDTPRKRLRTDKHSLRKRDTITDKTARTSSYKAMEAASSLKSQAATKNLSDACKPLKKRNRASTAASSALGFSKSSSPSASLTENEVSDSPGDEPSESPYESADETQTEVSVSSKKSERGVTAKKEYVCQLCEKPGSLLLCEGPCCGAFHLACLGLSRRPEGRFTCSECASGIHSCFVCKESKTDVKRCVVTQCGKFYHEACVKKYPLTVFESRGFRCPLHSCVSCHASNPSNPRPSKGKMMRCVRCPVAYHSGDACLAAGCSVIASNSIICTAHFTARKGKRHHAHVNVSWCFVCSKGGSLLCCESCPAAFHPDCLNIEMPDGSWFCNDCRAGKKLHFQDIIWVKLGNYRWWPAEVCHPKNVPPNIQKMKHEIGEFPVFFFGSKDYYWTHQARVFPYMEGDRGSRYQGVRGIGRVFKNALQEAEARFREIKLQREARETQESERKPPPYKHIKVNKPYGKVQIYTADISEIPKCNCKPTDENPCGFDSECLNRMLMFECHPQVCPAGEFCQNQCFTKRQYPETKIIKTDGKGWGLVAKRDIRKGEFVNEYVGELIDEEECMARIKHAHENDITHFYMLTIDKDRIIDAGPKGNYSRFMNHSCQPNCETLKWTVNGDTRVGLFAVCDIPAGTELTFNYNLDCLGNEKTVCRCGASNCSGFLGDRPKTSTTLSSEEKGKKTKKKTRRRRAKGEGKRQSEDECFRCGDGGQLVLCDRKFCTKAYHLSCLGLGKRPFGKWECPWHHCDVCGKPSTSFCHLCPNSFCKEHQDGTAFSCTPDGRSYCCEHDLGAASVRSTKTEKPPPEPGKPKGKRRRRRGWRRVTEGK
The class given is biochemical.

Series [2] has as its target T2, E3 ubiquitin-protein ligase XIAP (Homo sapiens, UniProt P98170). In words: XIAP antagonists, biochemical, IAP family, fluorescence polarization (AID 1018). The class given is functional.
The target of series [3] is T2, E3 ubiquitin-protein ligase XIAP. Description: Counter Screen using XIAP-Bir3 for Chemical Antagonists of Bir1/2 domains of IAP-family anti-apoptotic proteins. [Related pubchem assays (depositor defined):AID1018, AID1449, AID1514, AID1638, AID1749, AID1750, AID488957, AID488963]. In general terms: The purpose of a counterscreen is to sort out artefacts and off-target activity.

The target in the next series is Cytochrome P450 3A4 (Homo sapiens, UniProt P08684).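 Note: CYP3A4 tested as one member of a cytochrome P450 panel screen.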
Sequence of Cytochrome P450 3A4 (P08684 whole entry): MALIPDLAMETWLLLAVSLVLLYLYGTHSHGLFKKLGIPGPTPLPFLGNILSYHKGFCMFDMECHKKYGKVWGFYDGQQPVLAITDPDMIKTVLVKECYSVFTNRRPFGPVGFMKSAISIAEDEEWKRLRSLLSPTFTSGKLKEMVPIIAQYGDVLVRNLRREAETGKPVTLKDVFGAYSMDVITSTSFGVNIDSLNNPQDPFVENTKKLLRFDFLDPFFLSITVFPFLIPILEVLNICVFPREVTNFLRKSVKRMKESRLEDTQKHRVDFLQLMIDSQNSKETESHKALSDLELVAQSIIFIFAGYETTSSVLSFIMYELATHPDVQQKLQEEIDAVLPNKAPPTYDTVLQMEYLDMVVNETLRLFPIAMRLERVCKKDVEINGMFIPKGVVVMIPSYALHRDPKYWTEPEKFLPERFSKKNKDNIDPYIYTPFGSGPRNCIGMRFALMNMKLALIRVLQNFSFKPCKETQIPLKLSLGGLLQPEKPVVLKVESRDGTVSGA
The next series addresses Kallikrein-7 (Homo sapiens, UniProt P49862). In words: Fluorescence Intensity-based biochemical primary high throughput dose response assay to identify activators of kallikrein-7 (K7) zymogen.
The next series has as its target Cytochrome P450 2C9 (Homo sapiens, UniProt P11712).
Series [4] concerns the target T3, 1-phosphatidylinositol 4,5-bisphosphate phosphodiesterase beta-3 (Homo sapiens, UniProt Q01970).
T3 sequence (Q01970 whole entry): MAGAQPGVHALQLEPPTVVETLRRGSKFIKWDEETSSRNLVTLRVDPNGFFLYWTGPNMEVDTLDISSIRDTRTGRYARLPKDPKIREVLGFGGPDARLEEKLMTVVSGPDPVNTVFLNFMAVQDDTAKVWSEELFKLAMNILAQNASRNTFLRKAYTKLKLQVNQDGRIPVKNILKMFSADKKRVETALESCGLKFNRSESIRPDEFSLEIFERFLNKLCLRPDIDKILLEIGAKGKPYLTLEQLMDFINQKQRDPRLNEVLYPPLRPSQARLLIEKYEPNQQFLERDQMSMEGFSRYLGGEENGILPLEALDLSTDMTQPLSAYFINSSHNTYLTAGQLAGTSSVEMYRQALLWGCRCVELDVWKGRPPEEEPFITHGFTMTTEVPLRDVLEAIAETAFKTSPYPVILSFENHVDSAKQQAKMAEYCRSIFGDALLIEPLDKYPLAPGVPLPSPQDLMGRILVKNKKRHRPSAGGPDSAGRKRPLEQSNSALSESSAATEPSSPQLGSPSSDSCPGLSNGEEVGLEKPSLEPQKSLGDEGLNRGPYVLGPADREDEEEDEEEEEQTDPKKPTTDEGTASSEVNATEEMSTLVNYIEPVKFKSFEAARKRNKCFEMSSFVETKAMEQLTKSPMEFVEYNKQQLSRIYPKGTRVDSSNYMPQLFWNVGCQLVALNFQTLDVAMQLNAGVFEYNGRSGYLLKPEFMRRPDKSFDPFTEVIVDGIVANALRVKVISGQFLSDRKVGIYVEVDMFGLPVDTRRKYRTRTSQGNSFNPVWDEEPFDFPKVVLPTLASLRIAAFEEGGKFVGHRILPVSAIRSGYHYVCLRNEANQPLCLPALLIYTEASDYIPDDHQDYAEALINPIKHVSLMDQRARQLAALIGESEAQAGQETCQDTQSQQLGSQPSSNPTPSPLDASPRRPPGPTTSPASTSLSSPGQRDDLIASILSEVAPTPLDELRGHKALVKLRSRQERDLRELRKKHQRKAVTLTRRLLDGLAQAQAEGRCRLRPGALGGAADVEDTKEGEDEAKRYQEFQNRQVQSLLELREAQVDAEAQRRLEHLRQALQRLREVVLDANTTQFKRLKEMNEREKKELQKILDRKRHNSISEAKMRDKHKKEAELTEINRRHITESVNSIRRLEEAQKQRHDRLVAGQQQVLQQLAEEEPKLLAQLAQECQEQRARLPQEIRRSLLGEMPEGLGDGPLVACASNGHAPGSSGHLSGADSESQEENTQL
In words: Fluorescence-based biochemical high throughput dose response assay to identify inhibitors of phospholipase C isozymes (PLC-B3).

Series [5] addresses T4, 1-phosphatidylinositol 4,5-bisphosphate phosphodiesterase gamma-1 (Homo sapiens, UniProt P19174).
T4 sequence (P19174 whole entry): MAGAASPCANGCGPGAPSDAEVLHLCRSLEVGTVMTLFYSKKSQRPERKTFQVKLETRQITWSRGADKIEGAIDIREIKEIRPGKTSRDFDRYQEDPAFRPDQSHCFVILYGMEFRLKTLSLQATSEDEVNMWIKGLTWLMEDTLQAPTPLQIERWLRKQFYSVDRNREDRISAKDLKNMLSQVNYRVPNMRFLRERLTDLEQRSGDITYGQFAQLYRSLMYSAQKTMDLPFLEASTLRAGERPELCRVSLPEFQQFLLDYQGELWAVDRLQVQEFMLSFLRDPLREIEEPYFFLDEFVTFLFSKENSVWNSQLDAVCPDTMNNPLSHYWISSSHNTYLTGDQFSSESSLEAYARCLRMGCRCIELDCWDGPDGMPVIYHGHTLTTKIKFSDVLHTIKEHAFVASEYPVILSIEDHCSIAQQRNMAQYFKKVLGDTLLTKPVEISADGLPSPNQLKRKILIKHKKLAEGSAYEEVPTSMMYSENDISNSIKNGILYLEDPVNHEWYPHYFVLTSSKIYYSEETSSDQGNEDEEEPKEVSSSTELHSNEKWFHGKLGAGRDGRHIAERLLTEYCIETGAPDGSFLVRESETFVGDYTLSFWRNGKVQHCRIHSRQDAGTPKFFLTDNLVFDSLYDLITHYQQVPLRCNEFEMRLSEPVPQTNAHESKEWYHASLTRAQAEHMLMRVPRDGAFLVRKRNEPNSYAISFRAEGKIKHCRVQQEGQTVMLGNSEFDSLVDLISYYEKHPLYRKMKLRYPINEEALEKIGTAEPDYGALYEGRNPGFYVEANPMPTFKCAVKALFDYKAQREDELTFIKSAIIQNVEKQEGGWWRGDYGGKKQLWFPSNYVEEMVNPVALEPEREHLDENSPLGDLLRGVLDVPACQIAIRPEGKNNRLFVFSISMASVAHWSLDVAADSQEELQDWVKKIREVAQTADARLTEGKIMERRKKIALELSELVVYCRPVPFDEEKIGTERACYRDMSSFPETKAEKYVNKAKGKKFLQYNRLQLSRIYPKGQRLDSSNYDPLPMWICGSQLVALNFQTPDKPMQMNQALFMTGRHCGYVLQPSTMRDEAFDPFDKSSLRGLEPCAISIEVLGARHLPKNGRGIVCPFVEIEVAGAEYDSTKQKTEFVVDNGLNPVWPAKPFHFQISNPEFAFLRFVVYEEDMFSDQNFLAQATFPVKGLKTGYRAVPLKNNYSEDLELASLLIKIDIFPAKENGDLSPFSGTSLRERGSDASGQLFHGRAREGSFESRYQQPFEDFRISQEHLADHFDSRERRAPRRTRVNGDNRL
Description: Counterscreen for inhibitors of phospholipase C isozymes (PLC-B3): Fluorescence-based biochemical high throughput dose response assay to identify inhibitors of phospholipase C isozymes (PLC-gamma1).

The nature of series [6]: P. falciparum Dd2 growth inhibitors, dose response, SYBR Green, dry powder samples (AID 1159566).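 Note: potency for growth inhibition with lower SYBR green DNA signal.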 The class given is functional, cell-based.
The nature of series [7]: P. falciparum 3D7-ScDHODH growth inhibitors, dose response, SYBR Green, dry powder samples (AID 1159570).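 Note: parasite growth measured after 72 hours of compound exposure.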 Type of series: functional, cell-based.
The nature of series [8]: P. falciparum Dd2 growth inhibitors, dose response, SYBR Green, cherry-picked samples (AID 1159567). The class given is functional, cell-based.
The nature of series [9]: HepG2 cell cytotoxicity, dose response, cytotoxicity control, plate reader, dry powder samples (AID 1159569).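 Note: inhibitor potency with signal falling toward the positive control level.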 Type of series: functional, cell-based.
Series [10] can be described thus: P. falciparum ATP4 D1247Y mutant growth inhibitors, dose response, NITD609-resistant line, SYBR Green, dry powder (AID 1159571).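 Note: parasites synchronized at ring stage by sorbitol before testing.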 Type of series: functional, cell-based.
Series [11] in a line: enhancers of respiration in Yfh1-depleted yeast, dose response, Friedreich's ataxia, plus single-dose screen (AID 1465).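 Note: yeast depleted of Yfh1p frataxin homolog grown on glycerol needing respiration; WST-1 tetrazolium dye reduction as measure of cellular dehydrogenase metabolic activity.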 The class given is functional.
Series [12] addresses T5, Mannose-6-phosphate isomerase (Homo sapiens, UniProt P34949).
T5 sequence (P34949 whole entry): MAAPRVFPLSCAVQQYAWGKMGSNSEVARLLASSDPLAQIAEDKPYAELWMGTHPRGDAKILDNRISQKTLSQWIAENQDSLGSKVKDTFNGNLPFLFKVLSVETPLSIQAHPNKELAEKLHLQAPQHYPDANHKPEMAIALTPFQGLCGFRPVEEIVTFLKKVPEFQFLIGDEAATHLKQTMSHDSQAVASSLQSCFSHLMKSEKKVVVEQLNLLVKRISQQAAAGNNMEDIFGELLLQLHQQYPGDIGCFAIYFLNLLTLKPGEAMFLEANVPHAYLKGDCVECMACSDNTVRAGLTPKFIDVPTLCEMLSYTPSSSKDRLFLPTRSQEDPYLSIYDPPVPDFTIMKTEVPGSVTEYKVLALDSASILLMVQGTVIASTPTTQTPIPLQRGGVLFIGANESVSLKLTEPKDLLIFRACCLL
Description: human PMI inhibitors, high substrate, primary screen, biochemical, fluorescence intensity, high mannose 6-phosphate (AID 1220).

T2 sequence (P98170 whole entry): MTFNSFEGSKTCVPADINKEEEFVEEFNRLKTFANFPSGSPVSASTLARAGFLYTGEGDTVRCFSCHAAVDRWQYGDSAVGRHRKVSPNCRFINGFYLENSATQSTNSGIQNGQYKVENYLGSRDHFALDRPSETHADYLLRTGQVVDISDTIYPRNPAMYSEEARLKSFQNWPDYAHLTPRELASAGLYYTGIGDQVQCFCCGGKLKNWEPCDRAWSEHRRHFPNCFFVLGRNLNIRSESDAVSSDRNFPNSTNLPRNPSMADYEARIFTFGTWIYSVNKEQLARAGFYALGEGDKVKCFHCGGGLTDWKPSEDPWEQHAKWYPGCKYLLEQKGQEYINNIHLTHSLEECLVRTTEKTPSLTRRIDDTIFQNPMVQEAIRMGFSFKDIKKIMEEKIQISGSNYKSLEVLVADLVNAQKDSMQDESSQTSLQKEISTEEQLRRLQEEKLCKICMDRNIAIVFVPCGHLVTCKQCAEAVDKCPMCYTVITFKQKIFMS
Sequence of Kallikrein-7 (P49862 whole entry): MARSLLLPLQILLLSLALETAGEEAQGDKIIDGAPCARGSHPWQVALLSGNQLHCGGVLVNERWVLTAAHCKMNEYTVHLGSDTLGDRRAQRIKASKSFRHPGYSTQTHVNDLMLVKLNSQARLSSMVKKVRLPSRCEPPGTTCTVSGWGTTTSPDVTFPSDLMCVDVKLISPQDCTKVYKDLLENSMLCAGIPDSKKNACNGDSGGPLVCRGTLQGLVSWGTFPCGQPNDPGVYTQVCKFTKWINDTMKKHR
Sequence of Cytochrome P450 2C9 (P11712 whole entry): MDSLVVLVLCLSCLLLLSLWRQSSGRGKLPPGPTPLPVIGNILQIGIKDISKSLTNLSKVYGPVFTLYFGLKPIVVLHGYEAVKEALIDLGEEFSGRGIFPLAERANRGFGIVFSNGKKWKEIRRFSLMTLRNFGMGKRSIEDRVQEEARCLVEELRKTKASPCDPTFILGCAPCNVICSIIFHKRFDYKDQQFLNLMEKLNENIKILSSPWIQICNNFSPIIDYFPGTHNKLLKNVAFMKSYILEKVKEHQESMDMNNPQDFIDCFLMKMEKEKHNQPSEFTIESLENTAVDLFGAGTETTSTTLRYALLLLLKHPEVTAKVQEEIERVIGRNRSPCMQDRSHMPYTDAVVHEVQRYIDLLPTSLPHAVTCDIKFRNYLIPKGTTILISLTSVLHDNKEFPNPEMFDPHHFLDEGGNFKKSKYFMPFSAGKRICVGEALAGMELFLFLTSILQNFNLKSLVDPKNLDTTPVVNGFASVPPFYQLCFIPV

Consider `CCN(CC)CCNC(=O)/C(=C\c1cccn1C)NC(=O)c1cccs1`, for which the AC50 in [1] was > 20 µM (inactive). Moreover, the concentration for half-maximal inhibition (IC50) was > 100 µM (not active) in series [2] and > 100 µM (inactive) in series [3].
As to `C=CCNc1sc(C(=O)c2ccc(C)cc2)c(N)c1C#N`, the values for the half-maximal activity concentration (AC50) at Cytochrome P450 3A4 and on Cytochrome P450 2C9 were 31.6 µM (inconclusive) and “inconclusive”, respectively. Further, the half-maximal effective concentration (EC50) at Kallikrein-7 is 9.46 µM (active).
On to `Oc1c2nc3ccccc3c-2ncn1CCN1CCOCC1`, for which the IC50 in [4] and in series [5] was > 122 µM (inactive) throughout.
On to `COc1ccc(S(=O)(=O)N2CCCC2)c(C)c1C`, for which the IC50 is > 100 µM (not active) in [2] and > 100 µM (inactive) in series [3].
Consider `O=C(Nc1ccc(F)cc1)N1CCCCN2[C@H](CO)[C@H](c3ccc(C#Cc4ccccc4)cc3)[C@@H]2C1`, for which the AC50 in series [6] was 0.0167 µM (active); in [7], 0.0201 µM (active); in series [8], < 0.3 µM (active); in [9], 80.3 µM (active); in series [10], 0.0214 µM (active).
In the case of `O=[N+]([O-])c1ccc(N2CCCC2)cc1N/N=C1\CN2CCC1CC2`, in series [11], the EC50 was > 100 µM (active).
Turning to `COc1ccc2c3c(n(C)c2c1)[C@H](CO)N(C(=O)Nc1ccc(F)cc1)CC31CCN(C)CC1`, the AC50 in series [6] is 2.87 µM (active); in series [7], 4.11 µM (active); in series [8] it was 2.67 µM (active); in series [9], 54.1 µM (active); in series [10], 4.61 µM (active).
For `Cc1ccc(O)c(/N=C/c2ccc(C)s2)c1`, the half-inhibitory concentration (IC50) in [12] is > 50 µM (not active).
With `COc1cc(NC(=O)COc2ccccc2Cl)ccc1NC(=O)c1cccs1`, the concentration for a half-maximal effect (EC50) at Kallikrein-7 is 8.31 µM (active).
Same read-out and setting: for `O=C(C[C@H]1C[C@H](C(=O)N2CCCCC2)[C@@]2(CCc3ccccc3)c3[nH]c4cc(-c5ccco5)ccc4c3CCN2C1=O)NCCN1CCOCC1` the value was 8.82 µM (active).
On to `O=C(c1ccc(S(=O)(=O)NCC2CCCO2)cc1)N1CCN(c2cccc(Cl)c2)CC1` (stereo unspecified), for which the concentration for half-maximal inhibition (IC50) in series [2] was > 100 µM (not active); in [3], > 100 µM (inactive).
